This is an account of results in ChEMBL document CHEMBL1141672, “Novel bradykinin-1 antagonists containing a (1,2,3,4-tetrahydro-isoquinolin-1-yl)acetic acid scaffold” (Eur J Med Chem, 2008).

Experiment [1] has as its target T1, B1 bradykinin receptor (Homo sapiens) (UniProt P46663).
T1 sequence (whole entry): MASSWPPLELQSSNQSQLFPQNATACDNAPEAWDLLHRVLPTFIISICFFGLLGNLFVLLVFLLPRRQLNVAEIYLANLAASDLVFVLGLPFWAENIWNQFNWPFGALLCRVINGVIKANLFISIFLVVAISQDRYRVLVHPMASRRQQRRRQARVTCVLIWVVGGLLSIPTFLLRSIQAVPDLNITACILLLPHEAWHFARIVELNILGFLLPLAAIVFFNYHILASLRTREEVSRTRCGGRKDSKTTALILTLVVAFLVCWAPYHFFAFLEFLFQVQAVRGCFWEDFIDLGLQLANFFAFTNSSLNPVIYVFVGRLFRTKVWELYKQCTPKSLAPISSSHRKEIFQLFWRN
Briefly: Antagonist activity against human recombinant bradykinin B1 receptor expressed in CHO cells assessed as inhibition of [Lys-des-Arg9]bradykinin-induced cytoplasmic calcium release at 5 uM by fluorimetry. The experiment is classed as functional, cell-based.

A further experiment deals with T2, B1 bradykinin receptor (Homo sapiens, UniProt P46663).
T2 sequence (P46663 whole entry): T1 sequence (whole entry)
As to the kind of experiment: Displacement of [3H]Lys-bradykinin from human recombinant bradykinin B1 receptor expressed in CHO cells by scintillation counting. The experiment is classed as cell-based.

Regarding `Cc1ccc(S(=O)(=O)N2CCc3ccccc3C2CC(=O)NCCCCN)cc1` (racemic), in experiment [1], the inhibition was 15.9%. Consider `COc1cc2c(cc1OC)C(CC(=O)NCCCCN)N(S(=O)(=O)c1ccc(C)cc1)CC2` (racemic), for which, in experiment [1], the inhibition is 15.3%. On to `COc1cc2c(cc1OC)C(CC(=O)NCCCCNC(=N)N)N(S(=O)(=O)c1ccc(C)cc1)CC2` (racemic), for which the inhibition in experiment [1] came to 19%.

Regarding `Cc1ccc(S(=O)(=O)N2CCc3ccccc3C2CC(=O)NCCc2ccc(C3=NCCN3)cc2)cc1` (racemic), the inhibition in experiment [1] was 99%. Besides, the Ki at B1 bradykinin receptor worked out at 67 nM.

In the case of `COc1cc2c(cc1OC)C(CC(=O)NC1CCCCCC1)N(S(=O)(=O)c1ccc(C)cc1)CC2` (racemic), the inhibition in experiment [1] was determined as 9.3%. Take `COc1cc2c(cc1OC)C(CC(=O)NCCc1ccc(C3=NCCN3)cc1)N(S(=O)(=O)c1ccc(C)cc1)CC2` (racemic): the inhibition in experiment [1] is 85.7%. Besides, the Ki at B1 bradykinin receptor was found to be 2000 nM.

Take `Cc1ccc(S(=O)(=O)N2CCc3ccccc3C2CC(=O)NCCCCCCN)cc1` (racemic): the inhibition in experiment [1] is 16.3%. For `Cc1ccc(S(=O)(=O)N2CCc3ccccc3C2CC(=O)NC2CCCCCC2)cc1` (racemic), the inhibition in experiment [1] is 37%. Regarding `COc1cc2c(cc1OC)C(CC(=O)NCCCCCCN)N(S(=O)(=O)c1ccc(C)cc1)CC2` (racemic), in experiment [1], the inhibition amounted to 10.9%. In the case of `Cc1ccc(S(=O)(=O)N2CCc3ccccc3C2CC(=O)NCCCCNC(=N)N)cc1` (racemic), the inhibition in experiment [1] amounted to 44.9%.
